Measured values reported in patent US8021570B2, “β-peptide lyotropic liquid crystals and methods of manufacture and use thereof” (Wisconsin Alumni Research Foundation, priority 2006, dated 2011).

Legend:
[1] = Optical microscopy of aqueous β-peptide solutions between crossed polarizing filters (birefringence = LC phase formation); format: physicochemical; conditions: aqueous solution
From the text: The inventors used optical microscopy for initial evaluation of aqueous solutions of 1-5. For each β-peptide, aqueous solutions of varying concentration were drawn into microcapillaries and examined between crossed polarizing filters at room temperature (FIGS. 1 and 3). In such experiments, the observation of birefringence is taken as evidence of LC phase formation. […] Increasing β-peptide length by one triad, to generate 3, led to LC behavior at lower concentrations, as shown by the image obtained for a 10 wt % sample (61 mM, FIG. 1C). […] Thus, self-assembly of the chiral helix formed by 3 induced a helical ordering of molecules in the LC phase whereas the two-turn, chiral helix formed by 2 was unable to induce this higher ordered phase.
β-Peptides were weighed into glass vials, diluted to the desired concentration with water, and left on an oscillatory shaker overnight to ensure dissolution. β-peptide solutions were then drawn into a 2 μL microcapillary (Drummond), and the ends were sealed with a high viscosity vacuum grease (Dow-Corning) Microcapillaries were placed on a glass slide and imaged on an Olympus BX-60 microscope (Tokyo, Japan) in transmission mode between crossed polarizing filters using a digital camera (Olympus C2020 Zoom). […] Temperature was recorded from a thermostat but was not further calibrated.
Materials and Methods • Materials. […] Solvent A and Solvent B for RP-HPLC were 0.1% trifluoroacetic acid (TFA) in Millipore water and 0.1% TFA in acetonitrile, respectively. β-peptide purity was assessed using a Vydac C18 analytical column using a flow rate of 1 mL/min from 10-60% B over 50 minutes monitoring at 220 and 273 nm. • MALDI-TOF-MS (matrix-assisted laser desorption-ionization-time-of-flight mass spectrometry) data were collected on a Bruker REFLEX II spectrometer with a 337 nm laser using α-cyano-4-hydroxycinnamic acid as matrix. […] To assess the upper limit of concentration, a 1 μL droplet of a concentrated peptide solution was allowed to slowly evaporate while being monitored for birefringence. […]

streptavidin = biological target: T1, streptavidin (Streptomyces avidinii, UniProt P22629); experiment: Stability of streptavidin immobilized on gold slides after exposure to a liquid crystal (binding of fluorescently labeled biotin); conditions: 2 hrs incubation
T1 construct: purchased Pierce Biotechnology
T1 sequence (P22629 25-183): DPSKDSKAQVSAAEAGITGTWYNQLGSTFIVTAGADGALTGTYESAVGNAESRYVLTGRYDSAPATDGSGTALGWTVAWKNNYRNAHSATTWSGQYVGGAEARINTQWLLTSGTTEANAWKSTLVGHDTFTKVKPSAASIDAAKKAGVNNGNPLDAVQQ

β^3-hTyr-(ACHC-β^3-hPhe-β^3-hLys)3 scram
LC phase formation / birefringence (result in words) [1]: strong birefringence

pentanoyl-NH-β^3hTyr-(ACHC-ACHC-β^3hLys)3 [pentanoyl-β^3hTyr-(ACHC-ACHC-β^3hLys)3]
state of immobilized streptavidin after incubation with the liquid crystal (streptavidin; 1 wt %): streptavidin is still able to bind biotin

NCCCC[C@@H](CC(N)=O)NC(=O)C[C@H](Cc1ccccc1)NC(=O)[C@H]1CCCC[C@@H]1NC(=O)C[C@H](CCCCN)NC(=O)C[C@H](Cc1ccccc1)NC(=O)[C@H]1CCCC[C@@H]1NC(=O)C[C@H](CCCCN)NC(=O)C[C@H](Cc1ccccc1)NC(=O)[C@H]1CCCC[C@@H]1NC(=O)C[C@@H](N)Cc1ccc(O)cc1 [β-peptide iso-A]
solubility limit [1]: > 10 wt %

β^3-hTyr-(ACHC-ACHC-β^3-hLys)2 [β-peptide 2]
type of LC phase suggested by optical texture ([1]; room temperature, 2 at 19 wt %, 3 at 10 wt %): nematic

O=C([O-])c1cc(=O)c2c(OCC(O)COc3cccc4oc(C(=O)[O-])cc(=O)c34)cccc2o1.[Na+].[Na+] [disodium chromoglycate]
state of immobilized streptavidin after incubation with the liquid crystal (streptavidin; 16 wt %): streptavidin is still able to bind biotin

CCCCCCCCCCOS(=O)(=O)[O-].[Na+] [sodium decyl sulfate]
state of immobilized streptavidin after incubation with the liquid crystal (streptavidin; 32 wt %): the protein is denatured
